Data as given in ChEMBL document CHEMBL1629647, “Preclinical evaluation of GS-9160, a novel inhibitor of human immunodeficiency virus type 1 integrase” (Antimicrob Agents Chemother, 2009).

How the values were obtained:
[1] = tested on: Human immunodeficiency virus 1; assay: Antiviral activity against HIV1 3B infected in human MT-2 cells by two fold dilution method in presence of 10% FBS, HSA and alpha1-AGP; type: functional, organism-based; settings: Human immunodeficiency virus 1, 3B, MT2
[2] = tested on: Human immunodeficiency virus 1; assay: Antiviral activity against 0.001 MOI HIV1 BAL infected in human T lymphocyte cells by p24 antigen ELISA in presence of 10% FBS; type: functional, organism-based; settings: Human immunodeficiency virus 1, BAL
[3] = tested on: Human immunodeficiency virus 1; assay: Selectivity ratio of EC50 for antiviral activity against HIV1 harboring E138K mutation in catalytic core domain of integrase to EC50 for antiviral activity against wild-type HIV1 3B; type: functional
[4] = tested on: Human immunodeficiency virus 1; assay: Selectivity ratio of EC50 for antiviral activity against APV-resistant HIV1 selected after 4 passages to EC50 for antiviral activity against wild-type HIV1 3B; type: functional
[5] = tested on: Human immunodeficiency virus 1; assay: Selectivity ratio of EC50 for antiviral activity against GS-9160-resistant HIV1 selected after 9 passages to EC50 for antiviral activity against wild-type HIV1 3B; type: functional
[6] = tested on: Human immunodeficiency virus 1; assay: Selectivity ratio of EC50 for antiviral activity against HIV1 harboring E138K and Q148K mutation in catalytic core domain of integrase to EC50 for antiviral activity against wild-type HIV1 3B; type: functional
[7] = tested on: Human immunodeficiency virus 1; assay: Antiviral activity against 0.001 MOI HIV1 BAL infected in human T lymphocyte cells by p24 antigen ELISA in presence of 10% FBS, HSA and alpha1-AGP; type: functional, organism-based; settings: Human immunodeficiency virus 1, BAL
[8] = tested on: Human immunodeficiency virus 1; assay: Antiviral activity against 0.04 MOI HIV1 3B infected in human MT-2 cells by […] dilution method in presence of 100% human serum; settings: Human immunodeficiency virus 1, 3B, MT2
[9] = tested on: Human immunodeficiency virus 1; assay: Selectivity ratio of EC50 for antiviral activity against PI-resistant HIV1 harboring […], V82A and L90M mutant gene to EC50 for antiviral activity against wild-type HIV1 3B; type: functional
[10] = tested on: Human immunodeficiency virus 1; assay: Selectivity ratio of EC50 for antiviral activity against HIV1 harboring L74M mutation in catalytic core domain of integrase to EC50 for antiviral activity against wild-type HIV1 3B; type: functional
[11] = tested on: Human immunodeficiency virus 1; assay: Antiviral activity against 0.01 MOI HIV1 3B infected in human MT-2 cells by two fold dilution method in presence of 100% human serum; type: functional, organism-based; settings: Human immunodeficiency virus 1, 3B, MT2
[12] = tested on: Human immunodeficiency virus 1; assay: Antiviral activity against HIV1 3B infected in human MT-4 cells by two fold dilution method in presence of 10% FBS; type: functional, organism-based; settings: Human immunodeficiency virus 1, 3B, MT4

| SMILES | EC50 [1] | EC50 [2] | Ratio EC50 [3] | Ratio EC50 [4] | Ratio EC50 [5] | Ratio EC50 [6] | EC50 [7] | EC50 [8] | Ratio EC50 [9] | Ratio EC50 [10] | EC50 [11] | EC50 [12] |
| --- | --- | --- | --- | --- | --- | --- | --- | --- | --- | --- | --- | --- |
| O=C(NCc1ccc(F)cc1)c1nc(N2CCCCS2(=O)=O)c2cccnc2c1O | 43 nM | 3 nM | 8 | 1.9 | 49 | 314 | 60 nM | 200 nM | 1 | 1 | 41 nM |  |
| CN(c1c2c(c(O)c3ncccc13)C(=O)N(Cc1ccc(F)cc1)C2)S(C)(=O)=O | 15 nM | 1.5 nM | 12 | 1.6 | 51 | 250 | 15 nM | 30 nM | 1 | 1 | 12 nM | 0.7 nM |
